Experimental data published in ChEMBL document CHEMBL4033633, “N-(Aroyl)-N-(arylmethyloxy)-α-alanines: Selective inhibitors of aldose reductase” (Bioorg Med Chem, 2017).
pIC50: −log10 of the molar value.

Experiments:
[1] = target: Aldo-keto reductase family 1 member B1 (Rattus norvegicus, UniProt P07943); experiment: Inhibition of Sprague-Dawley rat lens ALR2 using D,L-glyceraldehyde as substrate preincubated for 10 mins followed by substrate addition measured for 5 mins by spectrophotometric method
[2] = target: Aldo-keto reductase family 1 member A1 (Rattus norvegicus, UniProt P51635); experiment: Inhibition of Sprague-Dawley rat kidney ALR1 using sodium D-glucuronate as substrate by spectrophotometric method
Aldo-keto reductase family 1 member A1, sequence (P51635 whole entry, looked up): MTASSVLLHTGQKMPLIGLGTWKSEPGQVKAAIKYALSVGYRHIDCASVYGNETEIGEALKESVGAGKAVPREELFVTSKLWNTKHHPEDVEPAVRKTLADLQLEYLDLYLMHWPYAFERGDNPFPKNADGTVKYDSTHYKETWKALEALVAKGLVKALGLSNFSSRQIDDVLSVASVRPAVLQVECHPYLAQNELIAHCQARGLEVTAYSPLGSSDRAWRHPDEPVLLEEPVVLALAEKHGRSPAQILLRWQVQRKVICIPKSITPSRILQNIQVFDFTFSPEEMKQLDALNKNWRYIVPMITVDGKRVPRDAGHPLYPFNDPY

[3] = target: Aldo-keto reductase family 1 member B1 (Bos taurus, UniProt P16116); experiment: Inhibition of bovine lens ALR2 using D,L-glyceraldehyde as substrate measured for 4 mins by spectrophotometric method

| SMILES | pIC50 [1] | pIC50 [2] | pIC50 [3] |
| --- | --- | --- | --- |
| COc1ccc(C(=O)N(OCc2cccc(Cl)c2)C(C)C(=O)O)cc1 (stereo not drawn) | < 4.00 | < 4.00 |  |
| CC(C(=O)O)N(OCc1ccccc1Cl)C(=O)c1ccccc1 (stereo not drawn) | 5.31 | < 4.00 |  |
| CC(C(=O)O)N(OCc1ccc(Cl)cc1)C(=O)c1ccccc1 (stereo not drawn) | 5.57 | < 4.00 |  |
| COc1ccc(C(=O)N(CC(=O)O)OCc2ccccc2)cc1 |  |  | 5.46 |
| COc1ccc(C(=O)N(OCc2ccccc2Cl)C(C)C(=O)O)cc1 (stereo not drawn) | 5.62 | < 4.00 |  |
| CC(C(=O)O)N(OCc1ccccc1)C(=O)c1ccccc1 (stereo not drawn) | 4.33 | < 4.00 |  |
| COc1ccc(C(=O)N(OCc2ccc(Cl)cc2)C(C)C(=O)O)cc1 (stereo not drawn) | 5.00 | < 4.00 |  |
| CC(C(=O)O)N(OCc1cccc(Cl)c1)C(=O)c1ccccc1 (stereo not drawn) | 4.90 | < 4.00 |  |
| COc1ccc(C(=O)N(OCc2ccccc2)C(C)C(=O)O)cc1 (stereo not drawn) | < 4.00 | < 4.00 |  |
| COc1ccc(C(=O)N(CC(=O)O)OCc2ccc(Cl)cc2)cc1 |  |  | 5.20 |
